What was measured:
[1] = Solubility Screening Test I and II, HPLC of supernatant; type: physicochemical
Procedure: For each solvent, a 100 μL glass crimp-top vial was charged with ˜10 mg of PX-866 and sealed. By syringe, 2 parts of the appropriate solvent was added. If PX-866 dissolved completely, no further work was done. If necessary, more solvent was added to obtain a supernatant. The crimped vial was sonicated for 15 minutes and then centrifuged for 30 seconds. 1.0 μL of the supernatant was removed by syringe and added to a sealed HPLC vial containing 500 μL of acetonitrile. The same saturated solution was then heated for 30 minutes to a set point of 50° C., centrifuged again, and a second HPLC vial was prepared with 1.0 μL of the supernatant at 50° C. In the case of toluene, anisole, o-xylene, propyl acetate, 4-methyl-2-pentanone, and 1-pentanol the room temperature supernatant was transferred to a clean vial and cooled down to 0° C., and then −20° C. For each temperature, an HPLC vial was prepared with 1.0 μL of the supernatant. HPLC samples were run using the method described below and the 254 nm AUC was plotted on a calibration curve to obtain solubility data.
The samples that crystallized were cooled to 0° C. and subsequently −20° C. to acquire two additional temperature points. Solubility in the aliphatic solvents (propyl acetate, 4-methyl-2-pentanone, and 1-pentanol) decreased drastically with temperature from RT to −20° C.

[2] = test system: phosphatidylinositol-3-kinase (PI-3K); settings: cited from earlier work
[3] = aqueous solutions at either 37° C. or 0° C. at neutral pH; cited from earlier work
[4] = as described in WO 2011/153488 and WO 2011/153495; cited from earlier work
[5] = Crystallization study in anisole, PX-866 quantified in supernatant; type: physicochemical
Procedure: 53 mg of PX-866 was placed in a 2 mL flat bottom vial and then added ˜940 μL (18 vol.) of anisole at RT. The supernatant was transferred to another vial and cooled down first to 4° C., and then to −20° C. (PX-866 quantified in aliquots of the supernatant at both temperatures). The resulted solids were dried under a stream of nitrogen and further dried under vacuum at RT for 16 hours, then dried under vacuum at 40° C. for 16 hours. PX-866 concentration in supernatant: RT: 9.9 mg/mL; 4° C.: 7.0 mg/mL; −20° C.: 6.2 mg/mL.

pulmonary fibrosis = settings: as described in WO 2010/118250; cited from earlier work
[6] = Initial solvent screen, visual dissolution on adding solvent in 50 μL portions; type: physicochemical; settings: for Soluble: RT
Procedure: This initial solvent screen of PX-866 in 18 solvents was executed to select appropriate solvents for slurry experiments. Approximately 1-2 mg of the material was placed in 2 dram glass vials and the chosen solvents were added in 50 μL portions to determine the minimum amount of solvent needed for dissolution. The vials were shaken at ambient temperature and visually inspected between each addition to determine if complete dissolution had taken place.
To estimate the ratio of primary solvent to anti-solvent necessary for use in the slurry experiments, heptane or water was then added to the dissolved PX-866 in […], portions until a turbid solution was formed or solids precipitated out. […] The exceptions occurred when MeCN and AcOH were used as the primary solvent as the product oiled out upon anti-solvent addition.

[7] = Formulation and handling studies of amorphous and crystalline forms; type: physicochemical
Description: In some embodiments, crystalline forms of Compound 1 and/or analogs thereof show less variability in vitro dissolution profiles as compared to the amorphous form. In some instances, crystalline forms of Compound 1 and/or analogs thereof have better flowability as compared to the amorphous form.

[8] = Water slurry at ambient temperature; type: physicochemical; settings: 0.5 g slurry in deionized water
Procedure: An initial solvent screen was performed on PX-866 to determine appropriate primary solvents and anti-solvents. Slurries and several precipitations were then performed utilizing several primary solvents and anti-solvents at 50 mg scale. […] The water slurry was then scaled up to 0.5 g and performed at ambient temperature. Since there was a concern for degradation taking place during the slurry at ambient temperature an additional slurry was performed on 0.5 g scale at 10° C. in an attempt to minimize any potential degradation.

COC[C@H]1OC(=O)c2coc3c2[C@@]1(C)C1=C(C3=O)[C@@H]2CCC(=O)[C@@]2(C)C[C@H]1OC(C)=O [wortmannin]
Solubility ([1]; in toluene, anisole, and o-xylene): low | inhibition of PI-3K [2]: irreversibly inhibits | inhibition of PI-3 kinase isoforms ([2]; p110α, p110β, p110δ and p110γ): inhibited equally | stability in aqueous solution [3]: subject to decomposition

C=CCN(/C=C1/C(=O)O[C@H](COC)[C@@]2(C)C1=C(O)C(=O)C1=C2[C@H](OC(C)=O)C[C@]2(C)C(=O)CC[C@@H]12)CC=C [PX-866, (4S,4aR,5R,6aS,9aR, Z)-1-((diallylamino)methylene)-11-hydroxy-4-(methoxymethyl)-4-a,6a-dimethyl-2,7,10-trioxo-1,2,4,4a,5,6,6a,7,8,9,9a,10-dodecahydroindeno[4,5-h]isochromen-5-yl acetate]
efficacy in human trials [4]: has shown efficacy | PX-866 concentration in supernatant ([5]; 4° C.): 7.0 mg/mL | PX-866 concentration in supernatant ([5]; RT): 9.9 mg/mL | PX-866 concentration in supernatant ([5]; −20° C.): 6.2 mg/mL | Solubility ([1]; 1,1,1,3,3,3,hexafluoro-2-propanol, RT): >500 @ RT mg/mL | Solubility ([1]; 1,1,1-trichloroethane, RT): >500 @ RT mg/mL | Solubility ([1]; 1,1,2,2-tetrachloroethane, RT): >500 @ RT mg/mL | Solubility ([1]; 1,4-dioxane, RT): >500 @ RT mg/mL | Solubility ([1]; 1-butanol, RT): >500 @ RT mg/mL | Solubility ([1]; 1-octanol, RT): 90.6 mg/mL | Solubility ([1]; 1-pentanol, 0° C.): 22.8 mg/mL | Solubility ([1]; 1-pentanol, RT): 84.4 mg/mL | Solubility ([1]; 1-pentanol, −20° C.): 2.4 mg/mL | Solubility ([1]; 2,2,2-trifluoroethanol, RT): >500 @ RT mg/mL | Solubility ([1]; 2,2,4-trimethylpentane, RT): 0.37 mg/mL | Solubility ([1]; 2-butanone, RT): >500 @ RT mg/mL | Solubility ([1]; 2-ethoxyethanol, RT): >500 @ RT mg/mL | Solubility ([1]; 4-methyl-2-pentanone, 0° C.): 33.4 mg/mL | Solubility ([1]; 4-methyl-2-pentanone, RT): 38.4 mg/mL | Solubility ([1]; 4-methyl-2-pentanone, −20° C.): 8.5 mg/mL | Solubility ([1]; N-methyl-2-pyrrolidone, RT): >500 @ RT mg/mL | Solubility ([1]; acetone, RT): >500 @ RT mg/mL | Solubility ([1]; anisole, 0° C., supernatant after crystallization): 7.0 mg/mL | Solubility ([1]; anisole, RT, supernatant after crystallization): 9.9 mg/mL | Solubility ([1]; anisole, −20° C., supernatant after crystallization): 6.2 mg/mL | Solubility ([1]; benzyl alcohol, RT): 498.0 mg/mL | Solubility ([1]; butyl acetate, RT): >500 @ RT mg/mL | Solubility ([1]; chlorobenzene, RT): 15.6 mg/mL | Solubility ([1]; cumene, RT): 4.9 mg/mL | Solubility ([1]; di(ethylene glycol), RT): 374.8 mg/mL | Solubility ([1]; dibutyl ether, RT): 3.1 mg/mL | Solubility ([1]; dichloromethane, RT): >500 @ RT mg/mL | Solubility ([1]; diethyl ether, RT): 9.5 mg/mL | Solubility ([1]; diethylamine, RT): >500 @ RT mg/mL | Solubility ([1]; diisopropyl ether, RT): 4.2 mg/mL | Solubility ([1]; dimethylformamide, RT): >500 @ RT mg/mL | Solubility ([1]; dimethylsulfoxide, RT): 252.5 mg/mL | Solubility ([1]; ethanol, RT): >500 @ RT mg/mL | Solubility ([1]; ethanolamine, RT): >500 @ RT mg/mL | Comments: PX-866 in supernatant ([1]; ethanolamine, RT, solution turned dark orange): no PX-866 detected in | Solubility ([1]; ethyl acetate, RT): >500 @ RT mg/mL | Solubility ([1]; ethyl formate, RT): >500 @ RT mg/mL | Solubility ([1]; ethylene glycol, RT): 135.9 mg/mL | Solubility ([1]; glycerol, RT): 12.6 mg/mL | Solubility ([1]; heptanes, RT): 0.88 mg/mL | Solubility ([1]; hexanes, RT): 0.31 mg/mL | Solubility ([1]; isopentanol, RT): 228.2 mg/mL | Solubility ([1]; isopropyl acetate, RT): >500 @ RT mg/mL | Solubility ([1]; isopropyl alcohol, RT): >500 @ RT mg/mL | Solubility ([1]; m-xylene, RT): 4.5 mg/mL | Solubility ([1]; methanol, RT): >500 @ RT mg/mL | Solubility ([1]; methyl acetate, RT): >500 @ RT mg/mL | Solubility ([1]; methyl t-butyl ether, RT): 41.0 mg/mL | Solubility ([1]; methyltetrahydrofuran, RT): >500 @ RT mg/mL | Solubility ([1]; nitromethane, RT): >500 @ RT mg/mL | Solubility ([1]; o-xylene, 0° C., supernatant after crystallization): 7.3 mg/mL | Solubility ([1]; o-xylene, RT, supernatant after crystallization): 5.5 mg/mL | Solubility ([1]; o-xylene, −20° C., supernatant after crystallization): 5.7 mg/mL | Solubility ([1]; p-xylene, RT): 1.0 mg/mL | Solubility ([1]; pentane, RT): 0.79 mg/mL | Solubility ([1]; perfluorohexane, RT): 0.28 mg/mL | Solubility ([1]; propyl acetate, 0° C.): 54.8 mg/mL | Solubility ([1]; propyl acetate, RT): 84.6 mg/mL | Solubility ([1]; propyl acetate, −20° C.): 18.6 mg/mL | Solubility ([1]; sec-butyl ether, RT): 1.3 mg/mL | Solubility ([1]; t-Butanol, 30° C.): 340.0 mg/mL | Solubility ([1]; tetrahydrofuran, RT): >500 @ RT mg/mL | Solubility ([1]; toluene, 0° C., supernatant after crystallization): 2.7 mg/mL | Solubility ([1]; toluene, RT, supernatant after crystallization): 5.2 mg/mL | Solubility ([1]; toluene, −20° C., supernatant after crystallization): 2.6 mg/mL | Solubility ([1]; water, RT): 3.5 mg/mL | Comments: decomposition observed by HPLC ([1]; water, RT, solubility sample): Slightly soluble, significant decomposition | efficacy in pulmonary fibrosis (pulmonary fibrosis): has shown efficacy | Soluble ([6]; AcOH, vial conc. 48.0 mg/mL): Yes | Soluble ([6]; Acetone, vial conc. 38.0 mg/mL): Yes | Soluble ([6]; Acetone, vial conc. 102.0 mg/mL (Table 2A)): Yes | Soluble ([6]; DCM, vial conc. 48.0 mg/mL): Yes | Soluble ([6]; DMF, vial conc. 56.0 mg/mL): Yes | Soluble ([6]; Dioxane, vial conc. 38.0 mg/mL): Yes | Soluble ([6]; EtOAc, vial conc. 38.0 mg/mL): Yes | Soluble ([6]; EtOH, vial conc. 56.0 mg/mL): Yes | Soluble ([6]; EtOH, vial conc. 164.0 mg/mL (Table 2A)): Yes | Soluble ([6]; Heptane, vial conc. 0.4 mg/mL): No | Soluble ([6]; IPA, vial conc. 28.0 mg/mL): Yes | Soluble ([6]; IPA, vial conc. 106.0 mg/mL (Table 2A)): Yes | Soluble ([6]; IPAc, vial conc. 32.0 mg/mL): Yes | Soluble ([6]; MECN, vial conc. 100.0 mg/mL (Table 2A)): Yes | Soluble ([6]; MEK, vial conc. 56.0 mg/mL): Yes | Soluble ([6]; MTBE, vial conc. 13.0 mg/mL): Yes | Soluble ([6]; MeCN, vial conc. 16.0 mg/mL): Yes | solubility at ambient temperature ([6]; MeCN, dioxane, acetone, MTBE, EtOH, EtOAc, IPAc, IPA, THF, MEK, DMF, AcOH, MeOH, toluene, DCM): good solubility | Soluble ([6]; MeOH, vial conc. 52.0 mg/mL): Yes | Soluble ([6]; MeOH, vial conc. 150.0 mg/mL (Table 2A)): Yes | Soluble ([6]; THF, vial conc. 52.0 mg/mL): Yes | Soluble ([6]; Toluene, vial conc. 56.0 mg/mL): Yes | Soluble ([6]; Water, vial conc. 0.3 mg/mL): Partially | Soluble ([6]; c-Hexane, vial conc. 0.3 mg/mL): No | Solubility ([6]; c-hexane, heptane, and water): limited or no solubility | inhibition of PI-3K [2]: irreversibly inhibits | stability in solution [7]: poor stability | purity after water slurry [8]: notable decrease in PX-866 purity
